Experimental data reported in patent US20260250318A1, “COMPOSITIONS AND METHODS FOR CROSSING THE BLOOD BRAIN BARRIER” (VOYAGER THERAPEUTICS, INC., priority 2022, published 2026).

Experiments:
[1] = system: brain; assay: Matured TTM-001 and TTM-002 variants, NGS enrichment in mouse brain; type: in vivo, mice; settings: relative to AAV9 control
[2] = system: brains, heart, liver, muscle, and DRG of the NHPs; assay: Maturation of TTM-001 and TTM-002 capsids, NGS enrichment in NHP tissues; type: in vivo; settings: relative to AAV9 control
In short: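 Variants carry mutations within and flanking the loop IV peptide insert: positions 450–466 were triplet-randomized, while positions 449–466 received low-frequency point mutations. The combined pool went into two NHPs, and each peptide was scored by NGS enrichment ratio against AAV9.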

[3] = NGS fold-enrichment of matured AAV capsid variants, NHP brain, RNA
[4] = NGS fold-enrichment, mouse brain
[5] = NGS fold-enrichment of RNA, NHP brain
[6] = NGS fold-enrichment, NHP liver DNA
[7] = NGS fold-enrichment, NHP liver RNA
[8] = NGS fold-enrichment, NHP muscle
[9] = NGS fold-enrichment, brain of mice
[10] = NGS fold-enrichment, DRG of NHPs
[11] = NGS fold-enrichment, RNA, brain of NHPs
[12] = NGS fold-enrichment, heart of NHPs
[13] = NGS fold-enrichment, liver DNA of NHPs
[14] = NGS fold-enrichment, liver RNA of NHPs
[15] = NGS fold-enrichment, muscle of NHPs

Row | Sequence | Fold Enrichment relative to AAV9, Brain (Mouse) ([1]; mouse brain) | Fold Enrichment relative to AAV9, Brain (NHP) [2, 3] | Fold Enrichment relative to AAV9, DRG (NHP) ([2]; NHP DRG) | Fold Enrichment relative to AAV9, Heart (NHP) ([2]; NHP heart) | Fold Enrichment relative to AAV9, Liver DNA (NHP) ([2]; NHP liver, DNA) | Fold Enrichment relative to AAV9, Liver RNA (NHP) ([2]; NHP liver, RNA) | Fold Enrichment relative to AAV9, Muscle (NHP) ([2]; NHP muscle) | Fold Enrichment relative to AAV9, Brain (Mouse) [1, 4] | Fold Enrichment relative to AAV9, Brain (NHP) [2, 5] | Fold Enrichment relative to AAV9, DRG (NHP) ([2]; NGS fold-enrichment, NHP DRG) | Fold Enrichment relative to AAV9, Heart (NHP) ([2]; NGS fold-enrichment, NHP heart) | Fold Enrichment relative to AAV9, Liver DNA (NHP) [2, 6] | Fold Enrichment relative to AAV9, Liver RNA (NHP) [2, 7] | Fold Enrichment relative to AAV9, Muscle (NHP) [2, 8] | also measured
1 | KNSLGSGSPHSKAQNQQT | 101.942 fold | 56.621 fold | 0.000 fold | 0.028 fold | 0.162 fold | 0.308 fold | 0.000 fold |  |  |  |  |  |  |  | 
2 | KNTNGSGSPHSKAQNQQT |  |  |  |  |  |  |  | 89.719 fold | 78.445 fold | 0.000 fold | 0.000 fold | 0.177 fold | 0.571 fold | 0.000 fold | 
3 | KNVNGSGSPHSKAQNQQT | 53.379 fold | 58.481 fold | 0.000 fold | 0.000 fold | 0.166 fold | 0.917 fold | 0.000 fold |  |  |  |  |  |  |  | 
4 | KNVVGHDSPHKSGQNQQT |  |  |  |  |  |  |  | 8.077 fold | 75.330 fold | 0.000 fold | 0.024 fold | 0.049 fold | 0.063 fold | 0.000 fold | 
5 | KQGEGSGSPHSKAQNQQT | 135.300 fold | 58.752 fold | 0.000 fold | 0.000 fold | 0.151 fold | 0.000 fold | 0.000 fold |  |  |  |  |  |  |  | 
6 | KSDIGSGSPHSKAQNQQT | 107.342 fold | 57.592 fold | 0.000 fold | 0.000 fold | 0.128 fold | 0.844 fold | 0.000 fold |  |  |  |  |  |  |  | 
7 | KSDKGSGSPHSKAQNQQT | 146.566 fold | 58.248 fold | 0.000 fold | 0.000 fold | 0.166 fold | 0.076 fold | 0.000 fold |  |  |  |  |  |  |  | 
8 | KSDQGSGSPHSKAQNQQT |  |  |  |  |  |  |  | 151.911 fold | 80.076 fold | 0.000 fold | 0.000 fold | 0.124 fold | 0.993 fold | 0.000 fold | Fold Enrichment relative to AAV9, Brain (Mouse) [1, 9]: 151.911 fold; Fold Enrichment relative to AAV9, DRG (NHP) [2, 10]: 0.000 fold; Fold Enrichment relative to AAV9, Brain (NHP) [2, 11]: 80.076 fold; Fold Enrichment relative to AAV9, Heart (NHP) [2, 12]: 0.000 fold; Fold Enrichment relative to AAV9, Liver DNA (NHP) [2, 13]: 0.124 fold; Fold Enrichment relative to AAV9, Liver RNA (NHP) [2, 14]: 0.993 fold; Fold Enrichment relative to AAV9, Muscle (NHP) [2, 15]: 0.000 fold
9 | KSEKGSGSPHSKAQNQQT | 158.931 fold | 58.566 fold | 0.000 fold | 0.010 fold | 0.059 fold | 1.601 fold | 0.011 fold |  |  |  |  |  |  |  | 
10 | KSELGHDSPHKSGQNQQT |  |  |  |  |  |  |  | 13.285 fold | 107.059 fold | 0.000 fold | 0.005 fold | 0.055 fold | 0.000 fold | 0.000 fold | 
11 | KSELGSGSPHSKAQNQQT | 120.521 fold | 55.997 fold | 0.000 fold | 0.005 fold | 0.239 fold | 0.881 fold | 0.000 fold |  |  |  |  |  |  |  | 
12 | KSIKGNGSPHSKAQNQQT |  |  |  |  |  |  |  | 90.251 fold | 75.196 fold | 0.000 fold | 0.000 fold | 0.000 fold | 0.000 fold | 0.000 fold | Fold Enrichment relative to AAV9, Brain (Mouse) [1, 9]: 90.251 fold; Fold Enrichment relative to AAV9, DRG (NHP) [2, 10]: 0.000 fold; Fold Enrichment relative to AAV9, Brain (NHP) [2, 11]: 75.196 fold; Fold Enrichment relative to AAV9, Heart (NHP) [2, 12]: 0.000 fold; Fold Enrichment relative to AAV9, Liver DNA (NHP) [2, 13]: 0.000 fold; Fold Enrichment relative to AAV9, Liver RNA (NHP) [2, 14]: 0.000 fold; Fold Enrichment relative to AAV9, Muscle (NHP) [2, 15]: 0.000 fold
13 | KSINESGSPHSKAQNQQI |  |  |  |  |  |  |  | 67.649 fold | 113.833 fold | 0.000 fold | 0.000 fold | 0.000 fold | 0.000 fold | 0.000 fold | Fold Enrichment relative to AAV9, Brain (Mouse) [1, 9]: 67.649 fold; Fold Enrichment relative to AAV9, DRG (NHP) [2, 10]: 0.000 fold; Fold Enrichment relative to AAV9, Brain (NHP) [2, 11]: 113.833 fold; Fold Enrichment relative to AAV9, Heart (NHP) [2, 12]: 0.000 fold; Fold Enrichment relative to AAV9, Liver DNA (NHP) [2, 13]: 0.000 fold; Fold Enrichment relative to AAV9, Liver RNA (NHP) [2, 14]: 0.000 fold; Fold Enrichment relative to AAV9, Muscle (NHP) [2, 15]: 0.000 fold
14 | KSINGGGSPHSKAQYQQT | 65.952 fold | 54.612 fold | 0.000 fold | 0.000 fold | 0.010 fold | 0.105 fold | 0.000 fold |  |  |  |  |  |  |  | 
15 | KSINGHDSPHKSGQIQHT |  |  |  |  |  |  |  | 13.872 fold | 87.598 fold | 0.000 fold | 0.480 fold | 0.347 fold | 0.714 fold | 0.000 fold | 
16 | KSINGHDSPHKSGQRQHT |  |  |  |  |  |  |  | 9.851 fold | 80.132 fold | 0.000 fold | 0.357 fold | 0.000 fold | 0.000 fold | 0.000 fold | 
